Biological target: T1, human oxytocin receptor (Homo sapiens, UniProt P30559)
T1 construct: host or cells: CHO cells, stably transfected (pcDNA3.1 vector)
T1 sequence (P30559 1-389): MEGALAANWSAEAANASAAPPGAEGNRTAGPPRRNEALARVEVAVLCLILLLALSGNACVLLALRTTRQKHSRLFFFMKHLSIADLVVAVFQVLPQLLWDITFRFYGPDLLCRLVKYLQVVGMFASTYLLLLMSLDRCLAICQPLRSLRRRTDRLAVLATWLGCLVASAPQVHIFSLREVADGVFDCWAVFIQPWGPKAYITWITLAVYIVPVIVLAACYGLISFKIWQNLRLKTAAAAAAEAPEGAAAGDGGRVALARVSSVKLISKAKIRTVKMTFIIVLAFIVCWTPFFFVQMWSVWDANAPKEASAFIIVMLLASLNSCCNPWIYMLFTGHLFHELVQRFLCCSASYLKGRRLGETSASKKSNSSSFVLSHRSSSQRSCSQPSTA
Test: Oxytocin binding in CHO cell membranes expressing human oxytocin receptors ([3H]oxytocin radioligand binding)
Conditions: for IC50: value in parentheses, read-out: OT (IC50); for inhibition at 0.1 µM: 100 nM, read-out: OT % inhibition @ 100 nM
Outline: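 Values are % inhibition at one concentration or nM IC50 from [3H]oxytocin displacement. Membranes from human oxytocin receptor CHO cells, 25–50 μg protein/well, 60 min at room temperature, pH 7.4 Tris buffer with protease inhibitors; bound label by filtration and scintillation counting.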

Row | IC50 | inhibition at 0.1 µM | SMILES
1 | – | 92% | Cc1ccccc1-c1ccc(C(=O)N2Cc3ccc(C(=O)N(C)CCc4ccccn4)n3Cc3ccccc32)cc1C [Example 66, 10-[(2,2′-Dimethyl-[1,1′-biphenyl]-4-yl)carbonyl]-N-methyl-N-[2-(2-pyridinyl)ethyl]-10,11-dihydro-5H-pyrrolo[2,1-c][1,4]benzodiazepine-3-carboxamide]
2 | – | 91% | COc1ccccc1-c1ccc(C(=O)N2Cc3ccc(C(=O)N(C)CCc4ccccn4)n3Cc3ccccc32)cc1 [Example 67, 10-[(2′-Methoxy-[1,1′-biphenyl]-4-yl)carbonyl]-N-methyl-N-[2-(2-pyridinyl)ethyl]-10,11-dihydro-5H-pyrrolo[2,1-c][1,4]benzodiazepine-3-carboxamide]
3 | – | 93% | Cc1ccccc1-c1ccc(C(=O)N2Cc3ccc(C(=O)N(C)CCc4ccccn4)n3Cc3ccccc32)cc1 [Example 68, N-Methyl-10-[(2′-methyl-[1,1′-biphenyl]-4-yl)carbonyl]-N-[2-(2-pyridinyl)ethyl]-10,11-dihydro-5H-pyrrolo[2,1-c][1,4]benzodiazepine-3-carboxamide]
4 | – | 94% | COc1cc(C(=O)N2Cc3ccc(C(=O)N(C)CCc4ccccn4)n3Cc3ccccc32)ccc1-c1ccccc1C [Example 69, 10-[(2-Methoxy-2′-methyl-[1,1′-biphenyl]-4-yl)carbonyl]-N-methyl-N-[2-(2-pyridinyl)ethyl]-10,11-dihydro-5H-pyrrolo[2,1-c][1,4]benzodiazepine-3-carboxamide]
5 | – | 77% | COc1cccc(-c2cc(OC)c(C(=O)N3Cc4ccc(C(=O)N(C)CCc5ccccn5)n4Cc4ccccc43)cc2Cl)c1 [Example 70, 10-[(6-Chloro-3,3′-dimethoxy-[1,1′-biphenyl]-4-yl)carbonyl]-N-methyl-N-[2-(2-pyridinyl)ethyl]-10,11-dihydro-5H-pyrrolo[2,1-c][1,4]benzodiazepine-3-carboxamide]
6 | – | 81% | COc1cc(C(=O)N2Cc3ccc(C(=O)N(C)CCc4ccccn4)n3Cc3ccccc32)ccc1-c1cccc2ccccc12 [Example 71, 10-[3-Methoxy-4-(naphthalen-1-yl)benzoyl]-N-methyl-N-[2-(2-pyridinyl)ethyl]-10,11-dihydro-5H-pyrrolo[2,1-c][1,4]benzodiazepine-3-carboxamide]
7 | – | 89% | COc1cccc(-c2ccc(C(=O)N3Cc4ccc(C(=O)N(C)CCc5ccccn5)n4Cc4ccccc43)cc2OC)c1 [Example 72, 10-[(2,3′-Dimethoxy-[1,1′-biphenyl]-4-yl)carbonyl]-N-methyl-N-[2-(2-pyridinyl)ethyl]-10,11-dihydro-5H-pyrrolo[2,1-c][1,4]benzodiazepine-3-carboxamide]
8 | – | 32% | CN(CCc1ccccn1)C(=O)c1ccc2n1Cc1ccccc1N(C(=O)c1ccc(-c3cccc4ccccc34)cc1Cl)C2 [Example 73, 10-[2-Chloro-4-(naphthalen-1-yl)benzoyl]-N-methyl-N-[2-(2-pyridinyl)ethyl]-10,11-dihydro-5H-pyrrolo[2,1-c][1,4]benzodiazepine-3-carboxamide]
9 | – | 91% | Cc1cc(C(=O)N2Cc3ccc(C(=O)N(C)CCc4ccccn4)n3Cc3ccccc32)ccc1-c1ccccc1C(F)(F)F [Example 74, N-Methyl-10-{[2-methyl-2′-trifluoromethyl-[1,1′-biphenyl]-4-yl]carbonyl}-N-[2-(2-pyridinyl)ethyl]-10,11-dihydro-5H-pyrrolo[2,1-c][1,4]benzodiazepine-3-carboxamide]
10 | – | 62% | COc1ccccc1-c1ccc(C(=O)N2Cc3ccc(C(=O)N4CCN(c5ccccn5)CC4)n3Cc3ccccc32)cc1C [Example 75, {10-[(2′-Methoxy-2-methyl-[1,1′-biphenyl]-4-yl)carbonyl]-10,11-dihydro-5H-pyrrolo[2,1-c][1,4]benzodiazepin-3-yl}[4-(2-pyridinyl)-1-piperazinyl]methanone]
11 | – | 62% | Cc1ccccc1-c1ccc(C(=O)N2Cc3ccc(C(=O)N4CCN(c5ccccn5)CC4)n3Cc3ccccc32)cc1C [Example 76, {10-[(2,2′-Dimethyl-[1,1′-biphenyl]-4-yl)carbonyl]-10,11-dihydro-5H-pyrrolo[2,1-c][1,4]benzodiazepin-3-yl}[4-(2-pyridinyl)-1-piperazinyl]methanone]
12 | – | 21% | COc1cccc(-c2ccc(C(=O)N3Cc4ccc(C(=O)N5CCN(c6ccccn6)CC5)n4Cc4ccccc43)cc2C)c1 [Example 77, {10-[(3′-Methoxy-2-methyl-[1,1′-biphenyl]-4-yl)carbonyl]-10,11-dihydro-5H-pyrrolo[2,1-c][1,4]benzodiazepin-3-yl}[4-(2-pyridinyl)-1-piperazinyl]methanone]
13 | – | 59% | COc1ccccc1-c1ccc(C(=O)N2Cc3ccc(C(=O)N4CCN(c5ccccn5)CC4)n3Cc3ccccc32)cc1 [Example 78, {10-[(2′-Methoxy-[1,1′-biphenyl]-4-yl)carbonyl]-10,11-dihydro-5H-pyrrolo[2,1-c][1,4]benzodiazepin-3-yl}[4-(2-pyridinyl)-1-piperazinyl]methanone]

The remaining lines, values behind:

Row | SMILES | IC50 | inhibition at 0.1 µM
14 | Cc1cc(C(=O)N2Cc3ccc(C(=O)N4CCN(c5ccncc5)CC4)n3Cc3ccccc32)ccc1-c1ccccc1C(F)(F)F [Example 1] | 11.2 nM | –
15 | Cc1cc(C(=O)N2Cc3ccc(C(=O)N4CCN(Cc5ccc[n+]([O-])c5)CC4)n3Cc3ccccc32)ccc1-c1ccccc1C(F)(F)F [Example 2, 10-{[2-Methyl-2′-trifluoromethyl-[1,1′-biphenyl]-4-yl]carbonyl}-3-({4-[(1-oxidopyridin-3-yl)methyl]piperazin-1-yl}carbonyl)-10,11-dihydro-5H-pyrrolo[2,1-c][1,4]benzodiazepine] | 16.8 nM | –
16 | Cc1cc(C(=O)N2Cc3ccc(C(=O)N4CCN(Cc5ccc[n+]([O-])c5C)CC4)n3Cc3ccccc32)ccc1-c1ccccc1C(F)(F)F [Example 3, 3-({4-[(2-Methyl-1-oxidopyridin-3-yl)methyl]piperazin-1-yl}carbonyl)-10-{[2-methyl-2′-trifluoromethyl-[1,1′-biphenyl]-4-yl]carbonyl}-10,11-dihydro-5H-pyrrolo[2,1-c][1,4]benzodiazepine] | 45 nM | –
17 | Cc1cc(C(=O)N2Cc3ccc(C(=O)N(C)Cc4ccc[n+]([O-])c4)n3Cc3ccccc32)ccc1-c1ccccc1C(F)(F)F [Example 4, N-Methyl-10-{[2-methyl-2′-trifluoromethyl-[1,1′-biphenyl]-4-yl]carbonyl}-N-[(1-oxidopyridin-3-yl)methyl]-10,11-dihydro-5H-pyrrolo[2,1-c][1,4]benzodiazepine-3-carboxamide] | 2.44 nM | –
18 | COc1cc(-c2ccccc2C(F)(F)F)c(Cl)cc1C(=O)N1Cc2ccc(C(=O)N(C)Cc3cccnc3)n2Cc2ccccc21 [Example 5, 10-{[6-Chloro-3-methoxy-2′-trifluoromethyl-[1,1′-biphenyl]-4-yl]carbonyl}-N-methyl-N-(pyridin-3-ylmethyl)-10,11-dihydro-5H-pyrrolo[2,1-c][1,4]benzodiazepine-3-carboxamide] | 10.2 nM | –
19 | COc1cc(-c2ccccc2Cl)c(Cl)cc1C(=O)N1Cc2ccc(C(=O)N(C)Cc3cccnc3)n2Cc2ccccc21 [Example 6, 10-[(2′,6-Dichloro-3-methoxy-[1,1′-biphenyl]-4-yl)carbonyl]-N-methyl-N-(pyridin-3-ylmethyl)-10,11-dihydro-5H-pyrrolo[2,1-c][1,4]benzodiazepine-3-carboxamide] | 7.51 nM | –
20 | COc1cc(C(=O)N2Cc3ccc(C(=O)N(C)Cc4cccnc4)n3Cc3ccccc32)ccc1-c1ccccc1C(F)(F)F [Example 7, 10-{[2-Methoxy-2′-trifluoromethyl-[1,1′-biphenyl]-4-yl]carbonyl}-N-methyl-N-(pyridin-3-ylmethyl)-10,11-dihydro-5H-pyrrolo[2,1-c][1,4]benzodiazepine-3-carboxamide] | 3.34 nM | –
21 | COc1cc(C(=O)N2Cc3ccc(C(=O)N(C)Cc4ccc[n+]([O-])c4)n3Cc3ccccc32)ccc1-c1ccccc1C(F)(F)F [Example 8, 10-{[2-Methoxy-2′-trifluoromethyl-[1,1′-biphenyl]-4-yl]carbonyl}-N-methyl-N-(1-oxo-pyridin-3-ylmethyl)-10,11-dihydro-5H-pyrrolo[2,1-c][1,4]benzodiazepine-3-carboxamide] | 4.65 nM | –
22 | COc1cccc(-c2ccc(C(=O)N3Cc4ccc(C(=O)N(C)CCc5ccccn5)n4Cc4ccccc43)cc2C)c1 [Example 62, 10-[(3′-Methoxy-2-methyl-[1,1′-biphenyl]-4-yl)carbonyl]-N-methyl-N-[2-(2-pyridinyl)ethyl]-10,11-dihydro-5H-pyrrolo[2,1-c][1,4]benzodiazepine-3-carboxamide] | 10.7 nM | –
23 | COc1cc(-c2ccccc2C)c(Cl)cc1C(=O)N1Cc2ccc(C(=O)N(C)CCc3ccccn3)n2Cc2ccccc21 [Example 63, 10-[(6-Chloro-3-methoxy-2′-methyl-[1,1′-biphenyl]-4-yl)carbonyl]-N-methyl-N-[2-(2-pyridinyl)ethyl]-10,11-dihydro-5H-pyrrolo[2,1-c][1,4]benzodiazepine-3-carboxamide] | 5.08 nM | –
24 | COc1ccccc1-c1ccc(C(=O)N2Cc3ccc(C(=O)N(C)CCc4ccccn4)n3Cc3ccccc32)cc1C [Example 65, 10-[(2′-Methoxy-2-methyl-[1,1′-biphenyl]-4-yl)carbonyl]-N-methyl-N-[2-(2-pyridinyl)ethyl]-10,11-dihydro-5H-pyrrolo[2,1-c][1,4]benzodiazepine-3-carboxamide] | – | 95%
